From patent US11104677B2, “Toll-like receptor 9 antagonists” (FRAUNHOFER-GESELLSCHAFT ZUR FÖRDERUNG DER ANGEWANDTEN …, priority 2015, dated 2021)
Where two headings read alike, the source gives them in different places.

Biological target: T1, TLR9 (Homo sapiens, UniProt Q9NR96)
T1 construct: expressed in transfected cells; host or cells: NIH 3T3 fibroblasts (mouse), stably transfected, NF-kB driven SEAP reporter
T1 sequence (Q9NR96 26-1032): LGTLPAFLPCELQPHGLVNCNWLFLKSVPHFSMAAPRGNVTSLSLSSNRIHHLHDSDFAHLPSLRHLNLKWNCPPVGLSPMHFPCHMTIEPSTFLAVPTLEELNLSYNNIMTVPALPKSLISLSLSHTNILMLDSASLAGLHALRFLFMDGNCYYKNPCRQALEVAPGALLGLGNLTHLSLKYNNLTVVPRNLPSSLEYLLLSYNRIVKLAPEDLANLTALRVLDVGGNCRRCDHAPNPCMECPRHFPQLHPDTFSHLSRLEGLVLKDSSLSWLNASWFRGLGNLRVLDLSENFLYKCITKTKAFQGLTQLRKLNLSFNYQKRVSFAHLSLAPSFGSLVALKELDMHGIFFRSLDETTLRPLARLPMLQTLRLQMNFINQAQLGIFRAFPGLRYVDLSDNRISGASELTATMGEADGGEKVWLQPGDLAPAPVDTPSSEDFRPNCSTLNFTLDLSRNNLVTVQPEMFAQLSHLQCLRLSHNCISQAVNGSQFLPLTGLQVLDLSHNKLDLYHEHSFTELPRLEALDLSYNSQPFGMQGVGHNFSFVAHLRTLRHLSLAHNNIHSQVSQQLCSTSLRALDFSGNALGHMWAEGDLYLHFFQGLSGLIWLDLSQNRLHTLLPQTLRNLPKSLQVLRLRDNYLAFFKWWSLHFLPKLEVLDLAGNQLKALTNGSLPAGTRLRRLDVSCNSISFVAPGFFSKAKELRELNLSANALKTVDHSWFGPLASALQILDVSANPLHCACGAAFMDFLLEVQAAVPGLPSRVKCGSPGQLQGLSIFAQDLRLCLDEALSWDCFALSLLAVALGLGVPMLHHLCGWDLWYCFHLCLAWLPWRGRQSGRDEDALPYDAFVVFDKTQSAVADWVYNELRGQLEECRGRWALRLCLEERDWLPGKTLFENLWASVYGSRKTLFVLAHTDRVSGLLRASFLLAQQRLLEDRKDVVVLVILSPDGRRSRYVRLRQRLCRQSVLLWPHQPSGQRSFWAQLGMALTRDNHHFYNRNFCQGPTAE
Experiment: cell-based reporter assay (NIH 3T3 reporter cell line expressing TLR9, NF-kB driven SEAP, stimulated with CpG ODN 2216)
Details: read-out: IC50 in
Protocol: In context with the present invention, the ‘IC50 value’ is the half maximum inhibitory concentration which is a measure of the effectiveness of a substance inhibiting the function of the TLR9. The IC50 value can be determined by a functional antagonist assay or a competition binding assay. Preferably, the IC50 value is determined by the cell-based reporter assay in section 3, below, of the examples.
A cell based test-system that allows PAMPs to be identified and differentiated via pattern recognition receptors (PRRs) in a reporter gene assay was used (DE 10 2006 031 483, EP 2 041 172). For this assay human PRRs and co-receptors were stably transfected and expressed in NIH 3T3 fibroblasts. This cell line expresses no other PRRs and contains a reporter gene which is activated by PRR-activation. The induction of receptor complexes by their ligands leads, after a signalling cascade, to an activation of transcription factor NF-kB, which regulates the expression of an additional integrated reporter gene, a secreted alkaline phosphatase (SEAP) (Burger-Kentischer, A.; Abele, I. S.; Finkelmeier, D.; Wiesmüller, K.-H.; Rupp, S., A new cell-based innate immune receptor assay for the examination of receptor activity, ligand specificity, signalling pathways and the detection of pyrogens. J. Immunol. Methods 2010, 358 (1), 93-103).
This test system mimics elements of the innate human immune system and can selectively recognize a large number of PAMPs with high sensitivity. Consequently, the PRR-specific cell-based high-throughput feature of the reporter cell lines will provide a fast, flexible and convenient means for lead compound screening in the pharmaceutical drug development fields. For the in vitro screening of the top candidates identified at IDR, the Fraunhofer IGB used this cell-based reporter system to identify TLR9 antagonists in order to determine their activity as well their biocompatibility. Within a first step the NIH3T3 cell line expressing TLR9 was used to measure the inhibitory effect of the TLR9 antagonists.
For the experiment the reporter cell line expressing TL9 was plated in 96-well cell culture plates at a density of 0.3×10^5 cells in DMEM media supplemented with 10% FCS (Invitrogen), 1% L-glutamine (200 mM Invitrogen) and 1% Penicillin-Streptomycin (PenStrep: 100×, Invitrogen). The cells were incubated for 16 h to grow adherent monolayers at 37° C. in a 5% saturated CO2 humidified atmosphere. After overnight incubation, the media was removed and replaced by DMEM medium supplemented with 1% PenStrep, 1% L-glutamine and 0.5% FCS. The media change is important to avoid a unspecific background signal, caused by active remaining phosphatases present in the FCS. The cells are then stimulated with a specific ligand non-methylated CpG ODN 2216 agonist (Invivogen) and the potential antagonists using different concentrations, namely within a range of concentrations of the potential antagonists starting with 0.025 μM (for the antagonist with the highest activity) up to 14 mM for the antagonists with lowest activities.
The ODN ligand has the sequence 5′-ggGGGACGA:TCGTCgggggg-3′ (SEQ ID No. 1). Those represented by capital letters are phosphodiesters, and those in small letters are phosphorothioate. The Palindrome is underlined.
The cells were again incubated in a humidified atmosphere for 16h leading to the expression or reduced expression of SEAP and its secretion into the media. Binding of the antagonist leads to a block of the TLR9, resulting in no or in a reduced expression of the reporter gene (SEAP). Therefore, 50 μl supernatant were taken from the cells and transferred into a 96-well PS microplate flat bottom (Greiner BIO-ONE). The enzyme substrate reaction was initiated by adding 50 μl of the specific substrate. SEAP catalyses the hydrolysis of pNPP to the final product para-nitrophenol (yellow), which can be detected in a photometric analysis using an UV-VIS reader at 405 nm. […]

[1] = Table 5, first 30 candidates, ODN 2216 agonist, n≥3
[2] = in the presence of 5 μM of the ODN 2216 agonist

IC50 [2] [µM]	SMILES	IC50 [1] [µM]
–	C(=C\c1ccc2ccccc2n1)/c1ccc(N2CCOCC2)cc1 [T6549007, O1CCN(CC1)c1ccc(cc1)\C═C\c1nc2c(cc1)cccc2]	4320
3.16	c1ccc(-n2cc(CNCCN3CCCC3)c(-c3ccc4c(c3)OCCO4)n2)cc1 [T5581956]	–
6.78	COc1ccc(CNc2nc3ccccc3n2CCN2CCCCC2)cc1OC [T0503-2983]	–
–	COc1ccc(/C=C/c2ccc3ccccc3n2)cc1OC [T6895608, O(C)c1cc(ccc1OC)\C═C\c1nc2c(cc1)cccc2]	8.91
–	c1ccc(-c2cc(-c3ccncc3)nc3ccccc23)cc1 [T6306924, n1c2c(cccc2)c(cc1-c1ccncc1)-c1ccccc1]	870
